Laboratory results taken from patent US4536335A, “Carbapenem antibiotics” (Bristol-Myers Company, priority 1983, dated 1985).
In brackets after ≈: the same amount, converted by molar mass. Like-named read-outs stand apart in the source and are kept apart here.

What was measured:
[1] = Urinary recovery after intramuscular administration to mice; type: in vivo; settings: mouse, urine, im, 20 mg/kg, intramuscular dose of 20 mg/kg, 0-6 hour collection, read-out: Urine Recovery
Procedure: Compounds were solubilized in 0.1 M phosphate buffer pH 7. Values are from a single test; 4 mice per compound.
Also shown is the urinary recovery in the mice.
***Recovery based on 0-6 hour collection

P. rettgeri A22424 = test: In vitro MIC, tube dilution; type: cell-based; settings: Providencia rettgeri, A22424, tube dilution, Nutrient Broth, overnight incubation at 37° C.; additional data table
S. pneumoniae A-9585 = test: In vitro MIC, tube dilution; type: cell-based; settings: Streptococcus pneumoniae, A9585, Nutrient Broth, overnight incubation at 37° C., additional data table
K. pneumoniae A-9664 = test: In vitro MIC, tube dilution; type: cell-based; settings: Klebsiella pneumoniae, A9664, tube dilution, Nutrient Broth, overnight incubation at 37° C.; additional data table
K. pneumoniae A20468 = test: In vitro MIC, tube dilution; type: cell-based; settings: Klebsiella pneumoniae, A20468, tube dilution, Nutrient Broth, overnight incubation at 37° C.; additional data table
S. marcescens A20019 = test: In vitro MIC, tube dilution; type: cell-based; settings: Serratia marcescens, A20019, tube dilution, Nutrient Broth, overnight incubation at 37° C.; additional data table
E. coli A20341-1 = test: In vitro MIC, tube dilution; type: cell-based; settings: Escherichia coli, A203411, tube dilution, Nutrient Broth, overnight incubation at 37° C.; additional data table
E. cloacae A-9659 = test: In vitro MIC, tube dilution; type: cell-based; settings: Enterobacter cloacae, A9659, tube dilution, Nutrient Broth, overnight incubation at 37° C.; additional data table
From the text: N-formimidoyl thienamycin was included as a comparison compound.

S. faecalis A20688 = test: In vitro MIC, tube dilution; type: cell-based; settings: Enterococcus faecalis, A20688, tube dilution, Nutrient Broth, overnight incubation at 37° C.; additional data table
S. aureus A-9537 = test: In vitro MIC, tube dilution; type: cell-based; settings: Staphylococcus aureus, overnight incubation at 37° C., additional data table
E. coli A15119 = test: In vitro MIC, tube dilution; type: cell-based; settings: Escherichia coli, A15119, tube dilution, Nutrient Broth, overnight incubation at 37° C.; additional data table
P. aeruginosa A-9843A = test: In vitro MIC, tube dilution; type: cell-based; settings: Pseudomonas aeruginosa, A9843A, Nutrient Broth, overnight incubation at 37° C., additional data table
P. vulgaris A21559 = test: In vitro MIC, tube dilution; type: cell-based; settings: Proteus vulgaris, A21559, tube dilution, Nutrient Broth, overnight incubation at 37° C.; additional data table
[2] = Half-life in phosphate buffer solution; type: physicochemical; settings: phosphate buffer, pH 7.4, concentration of 10^-4 M in phosphate buffer pH 7.4 at 36.8° C.; read-out: t1/2 (solution stability) (converted)
Procedure: A solution of para-nitrobenzyl 3-[2-(N-methylthiomorpholinium diphenylphosphate)ethylthio]-6α-[1'-(R)-hydroxyethyl]-7-oxo-1-azabicyclo[3.2.0]hept-2-ene-2-carboxylate (1.31 g, 1.76 mmol) in 0.1 M pH 7.4 phosphate buffer (48.8 mL), tetrahydrofuran (20 mL) and diethyl ether (20 mL) was hydrogenated over 10% pd/C (1.5 g) in a Parr shaker for 1 h at 40 psi. The reaction mixture was diluted with diethyl ether (40 mL) and the phases were separated. The organic phase was washed with water (2×5 mL). The aqueous phases were combined, filtered through a #52 hardened filter paper, washed with diethyl ether (2×20 mL) and pumped under vacuum. The aqueous solution was poured on a silica gel reverse phase column and the desired carbapenem was eluted with 5% acetonitrile-water.
To a solution of p-nitrobenzyl (5R,6S)-3-[2-(1-methylmorpholino)ethylthio]-6-[(R)-1-hydroxyethyl]-7-oxo-1-azabicyclo[3.2.0]hept-2-ene-2-carboxylate diphenylphosphate (0.360 g, 0.49 mmol) in 13 mL of phosphate buffer (0.05 M pH 7.4) was added 0.36 g of 10% palladium-on-charcoal, 20 mL of tetrahydrofuran and 20 mL of diethyl ether. This mixture was hydrogenated (Parr) at 32 psi for 1 h. The mixture was filtered through Celite and the filter pad was washed with H2 O and diethyl ether. The aqueous phase was separated and the pH was adjusted to 7.0 with additional pH 7.4 phosphate buffer. After removing residual organic solvents in vacuo the aqueous solution was applied to a C18 reverse-phase column.
To a solution of (5R,6S)paranitrobenzyl 3-[2-(1,4-dimethyl-1-piperazinium)ethylthio]-6-[1-(R)-hydroxyethyl]-7-oxo- 1-azabicyclo[3.2.0]hept-2-ene-2-carboxylate diphenylphosphate (0.47 g, 0.623 mmol) in wet tetrahydrofuran (25 mL) was added diethyl ether (25 mL), potassium phosphate monobasic-sodium hydroxide buffer (13 mL, pH 7.22) and 10% palladium on charcoal (0.47 g). The resulting mixture was hydrogenated at 23° C. under 40 psi for 1 h. The two layers were separated and the organic layer was extracted with water (2×7 mL).
To a cold (-10° C.) solution of (5R,6S)-3-[2 -(N-methyl-thiomorpholinium)ethylthio]-6-[1-(R)-hydroxyethyl]-7-oxo-1-azabicyclo(3.2.0)-hept-2-ene-2-carboxylate (608 mg, 1.65 mmol) in a 1:1 mixture of acetonitrile-water (9 mL) was added m-chloroperbenzoic acid (334.8 mg, 1.65 mmol) in small portion over a 1 hour period. The mixture was then diluted with water (15 mL) and washed with diethyl ether (3×15 mL).
A mixture of (5R,6S) paranitrobenzyl 3-[2-(1,4,4-trimethyl-1-piperazinium)ethylthio]-6-[1R-hydroxyethyl]-7-oxo- 1-azabicyclo(3.2.0)hept-2-ene-2-carboxylate bischloride (0.40 g, 0.68 mmol), phosphate buffer (30 mL, 0.05M, pH 7.0), tetrahydrofuran (10 mL), ether (30 mL) and 10% palladium on charcoal (0.40 g) was hydrogenated at 23° C. under 35 psi for 1 h. The two phases were separated. The organic phase was extracted with water (10 mL).

S. pyogenes A-9604 = test: In vitro MIC, tube dilution; type: cell-based; settings: Streptococcus pyogenes, A9604, tube dilution, Nutrient Broth, overnight incubation at 37° C.; additional data table

C[C@@H](O)[C@H]1C(=O)N2C(C(=O)[O-])=C(SCC[N+]3(C)CCN(C)CC3)C[C@H]12 [Example 4, (5R,6S)3-[2-(1,4-dimethyl-1-piperazinium)-ethylthio]-6-[1-(R)-hydroxyethyl]-7-oxo-1-azabicyclo-[3.2.0]hept-2-ene-2-carboxylate]
dose excreted at 6 h [1]: 33 ± 11% | MIC (P. rettgeri A22424): 1 µg/mL (≈ 2.71 µM) | MIC (S. pneumoniae A-9585): 0.004 µg/mL (≈ 0.0108 µM) | MIC (K. pneumoniae A-9664): 0.25 µg/mL (≈ 0.677 µM) | MIC (K. pneumoniae A20468): 0.5 µg/mL (≈ 1.35 µM) | MIC (S. marcescens A20019): 0.25 µg/mL (≈ 0.677 µM) | MIC (E. coli A20341-1): 0.13 µg/mL (≈ 0.352 µM) | MIC (E. cloacae A-9659): 1 µg/mL (≈ 2.71 µM) | MIC (S. faecalis A20688): 2 µg/mL (≈ 5.41 µM) | MIC (S. aureus A-9537; A9537, 50% serum, tube dilution, read-out: MIC S. aureus-50% serum A-9537): 0.06 µg/mL (≈ 0.162 µM) | MIC (S. aureus A-9537; A9537, tube dilution, Nutrient Broth, read-out: MIC S. aureus A-9537): 0.03 µg/mL (≈ 0.0812 µM) | MIC (E. coli A15119): 0.13 µg/mL (≈ 0.352 µM) | MIC (P. aeruginosa A-9843A): 16 µg/mL (≈ 43.3 µM) | MIC (P. vulgaris A21559): 0.25 µg/mL (≈ 0.677 µM) | half-life [2]: 12.4 h | MIC (S. pyogenes A-9604): 0.004 µg/mL (≈ 0.0108 µM)
